Results taken from US20240082282A1 (priority 2020, published 2024).
≈ marks a conversion by molar mass, not a printed value. Like-named read-outs stand apart in the source and are kept apart here.

Key:
[1] = test system: Fusobacterium nucleatum KLE 2428; format: cell-based; settings: Fusobacterium nucleatum KLE 2428, anaerobic, stool isolate; for MIC: KLE2428, read-out: Minimum inhibitory concentration (MIC)
[2] = test system: B. burgdorferi N40; experiment: Mouse infection model (IP injection, oral gavage); settings: for Culture positive (%): C3H, 5 days, whole ear culture; for B. burgdorferi culture (% positive) / Mean # of B. burgdorferi/10 mg of skin tissue (qPCR): twice a day for 5 days; for B. burgdorferi culture from mice: oral gavage twice per day
[3] = test system: Bacteroides cellulosilyticus KLE 2342; format: cell-based; settings: Bacteroides cellulosilyticus KLE 2342, anaerobic, stool isolate; for MIC: KLE2342, read-out: Minimum inhibitory concentration (MIC)
[4] = test system: Borrelia burgdorferi BbP1286; experiment: microbe, parasite or virus in culture; settings: Borreliella burgdorferi, BBP1286, read-out: Minimum inhibitory concentration (MIC)
[5] = test system: Bacteroides fragilis ATCC 25285; format: cell-based
[6] = test system: Brevinema andersonii ATCC 43811; settings: for MIC: Brevinema andersonii, ATCC43811, read-out: Minimum inhibitory concentration (MIC)
[7] = test system: Blautia producta ATCC 27340; format: cell-based; settings: Blautia producta ATCC 27340, anaerobic; for MIC: ATCC27340, read-out: Minimum inhibitory concentration (MIC)
[8] = test system: Borreliella burgdorferi 297; settings: for MIC: Borreliella burgdorferi, 297, read-out: Minimum inhibitory concentration (MIC)
[9] = test system: Staphylococcus aureus HG003; format: cell-based
[10] = test system: Pseudomonas aeruginosa PAO1; format: cell-based
[11] = test system: Clostridium perfringens KLE 2326; experiment: microbe, parasite or virus in culture; format: cell-based; settings: for MIC: Clostridium perfringens, KLE2326, read-out: Minimum inhibitory concentration (MIC)
[12] = test system: B. burgdorferi overexpressing bmpD (Bb1286+pJSB275m_bmpD); experiment: MIC of B. burgdorferi overexpressing bmpD; format: cell-based; settings: for Change of MIC on overexpression of bmpD in B. burgdorferi: normalized to wild-type B. burgdorferi, IPTG-independent
[13] = test system: B. burgdorferi N40; experiment: Bait experiment in infected mice; format: in vivo, C3H mice; settings: for B. burgdorferi culture (% positive) / Mean # of B. burgdorferi/10 mg of skin tissue (qPCR): bait once a day for 5 days; for Culture positive (%): C3H, bait, 5 days, whole ear culture
Description: Mice were infected with B. burgdorferi.
To prepare the mouse bait, 2 g of Bait formulation 3 (Food source), 0.5 g freshly ground peanut butter (Whole foods), 35 μl of green food coloring mix (Whole foods) were added into a 60 mm Petri dish. Boiling water (4 mL) was added and mixed with a spatula. The mixture was then dispensed into wells of a 96 well plate with a spatula such that about ⅔rd of the well was full. Antibiotics or vehicle were added at appropriate volume and mixed with a pipette tip. Added volume was kept below 60 μL per well. The bait was allowed to air dry/solidify for a few hours and the prepared baits were stored at 4° C. until use.
To ensure that the bait would be consumed, mice were housed individually with their mouse chow withheld during treatment. The doses used in mice were matched to the pharmacokinetic profile of humans given ceftriaxone 1 g every 12 hours (Sai Life Sciences Ltd, India) and doxycycline 100 mg every 12 hours.
Skin was used for liquid culture, and RNA extraction. All other tissues were used for RNA extraction. The growth of B. burgdorferi in 10 day liquid cultures was detected by dark field microscopy with a 100× objective.

[14] = test system: HepG2; settings: HepG2, alamar blue, 72 hours
[15] = test system: E. coli ΔTolC+pBAD30 bmpD; experiment: MIC of E. coli overexpressing bmpD; settings: arabinose induced
[16] = test system: FaDu; settings: alamar blue, 72 hours
[17] = test system: FaDu, HepG2 and HEK293-RFP cells; settings: a number of human cell lines
[18] = test system: GFP-inducible B. burgdorferi strain pCRW53; experiment: Measurement of protein synthesis inhibition (GFP, FACS); format: cell-based
[19] = test system: E. coli WT-Pore (hyperporinated); experiment: MIC of E. coli mutant strains
[20] = test system: E. coli ΔtolC-Pore (no efflux, hyperporinated); experiment: MIC of E. coli mutant strains
[21] = test system: Escherichia coli Nissle
[22] = test system: Brachyspira (formerly Treponema) hyodysenteriae; settings: report of a group from Japan; cited from earlier work
[23] = test system: HEK293; settings: HEK293, alamar blue, 72 hours
[24] = test system: Brachyspira (formerly Treponema) hyodysenteriae; settings: report of a group from Japan; cited from earlier work; remark: listed apart in the source
[25] = test system: E. coli ribosomes; experiment: Toeprinting / in vitro translation, affinity to ribosome; format: biochemical
[26] = test system: Borrelia burgdorferi BbP1286
[27] = test system: Treponema pallidum; experiment: MIC, T. pallidum in co-culture with rabbit Sf1Ep cells
[28] = ATCC25285, Bacteroides fragilis ATCC 25285, anaerobic, read-out: Minimum inhibitory concentration (MIC)
[29] = Staphylococcus aureus HG003, read-out: Minimum inhibitory concentration (MIC)
[30] = Pseudomonas aeruginosa PAO1, read-out: Minimum inhibitory concentration (MIC)
[31] = oral gavage, daily dose 100 mg/kg/day

Compound: CC1(C)S[C@@H]2[C@H](NC(=O)[C@H](N)c3ccc(O)cc3)C(=O)N2[C@H]1C(=O)O [Amoxicillin]
- MIC [1]: 2 mg/L (≈ 5.47 µM)
- Culture positive (%) ([2]; oral gavage, daily dose 200 mg/kg/day): 0%
- MIC [3]: 128 mg/L (≈ 350 µM)
- MIC [4]: 0.12 mg/L (≈ 0.328 µM)
- MIC [5, 28]: 16 mg/L (≈ 43.8 µM)
- MIC [6]: 0.12 mg/L (≈ 0.328 µM)
- MIC [7]: 1 mg/L (≈ 2.74 µM)
- MIC [8]: 0.25 mg/L (≈ 0.684 µM)
- MIC [9, 29]: 1 mg/L (≈ 2.74 µM)
- MIC [10, 30]: > 128 mg/L
- MIC [11]: 0.12 mg/L (≈ 0.328 µM)

Compound: CO/N=C(\C(=O)N[C@@H]1C(=O)N2C(C(=O)O)=C(CSc3nc(=O)c(=O)[nH]n3C)CS[C@H]12)c1csc(N)n1 [Ceftriaxone]
- MIC [1]: 0.5 mg/L (≈ 0.902 µM)
- B. burgdorferi culture (% positive) ([2]; 156 mg/kg, IP injection): 0%
- Mean # of B. burgdorferi/10 mg of skin tissue (qPCR) ([2]; 156 mg/kg, IP injection): <1 B. burgdorferi/10 mg of skin t
- Culture positive (%) ([2]; intraperitoneal injection, daily dose 312 mg/kg/day): 0%
- Change of MIC on overexpression of bmpD in B. burgdorferi [12]: no effect
- Change of MIC on overexpression of bmpD in B. burgdorferi ([12]; listed as ceftriaxone): remained unchanged
- MIC [3]: 128 mg/L (≈ 231 µM)
- MIC [4]: 0.01 mg/L (≈ 0.018 µM)
- MIC [5, 28]: 2 mg/L (≈ 3.61 µM)
- MIC [6]: 0.01 mg/L (≈ 0.018 µM)
- MIC [7]: 0.5 mg/L (≈ 0.902 µM)
- MIC [8]: 0.01 mg/L (≈ 0.018 µM)
- MIC [9, 29]: 8 mg/L (≈ 14.4 µM)
- MIC [10, 30]: 64 mg/L (≈ 115 µM)
- MIC [11]: < 0.01 mg/L

Compound: C[C@H]1c2cccc(O)c2C(=O)C2=C(O)[C@]3(O)C(=O)C(C(N)=O)=C(O)[C@@H](N(C)C)[C@@H]3[C@@H](O)[C@@H]21 [Doxycycline]
- MIC [1]: 0.12 mg/L (≈ 0.27 µM)
- Culture positive (%) [2, 31]: 0%
- MIC [3]: 2 mg/L (≈ 4.5 µM)
- MIC [4]: 0.25 mg/L (≈ 0.563 µM)
- MIC [5, 28]: 0.5 mg/L (≈ 1.13 µM)
- MIC [6]: 0.12 mg/L (≈ 0.27 µM)
- MIC [7]: 2 mg/L (≈ 4.5 µM)
- MIC [8]: 0.25 mg/L (≈ 0.563 µM)
- MIC [9, 29]: 0.12 mg/L (≈ 0.27 µM)
- MIC [10, 30]: 32 mg/L (≈ 72 µM)
- MIC [11]: 0.25 mg/L (≈ 0.563 µM)
- B. burgdorferi culture (% positive) ([13]; 100 mg/kg): 0%
- Mean # of B. burgdorferi/10 mg of skin tissue (qPCR) ([13]; 100 mg/kg): <1 B. burgdorferi/10 mg of skin t
- Culture positive (%) ([13]; daily dose 200 mg/kg/day): 0%

Compound: Hygromycin A
- Minimum inhibitory concentration (MIC) [1]: 1 mg/L
- B. burgdorferi culture (% positive) ([2]; 25 mg/kg, oral gavage): 50%
- Mean # of B. burgdorferi/10 mg of skin tissue (qPCR) ([2]; 25 mg/kg, oral gavage): <1 B. burgdorferi/10 mg of skin t
- B. burgdorferi culture (% positive) ([2]; 50 mg/kg, oral gavage): 0%
- Mean # of B. burgdorferi/10 mg of skin tissue (qPCR) ([2]; 50 mg/kg, oral gavage): <1 B. burgdorferi/10 mg of skin t
- B. burgdorferi culture (% positive) ([2]; 70 mg/kg, oral gavage): 0%
- Mean # of B. burgdorferi/10 mg of skin tissue (qPCR) ([2]; 70 mg/kg, oral gavage): <1 B. burgdorferi/10 mg of skin t
- B. burgdorferi culture (% positive) ([2]; 75 mg/kg, IP injection): 0%
- Mean # of B. burgdorferi/10 mg of skin tissue (qPCR) ([2]; 75 mg/kg, IP injection): <1 B. burgdorferi/10 mg of skin t
- B. burgdorferi culture (% positive) ([2]; 250 mg/kg, oral gavage): 0%
- Mean # of B. burgdorferi/10 mg of skin tissue (qPCR) ([2]; 250 mg/kg, oral gavage): <1 B. burgdorferi/10 mg of skin t
- Culture positive (%) ([2]; intraperitoneal injection, daily dose 100 mg/kg/day): 0%
- Culture positive (%) ([2]; oral gavage, daily dose 50 mg/kg/day): 50%
- Culture positive (%) [2, 31]: 0%
- Culture positive (%) ([2]; oral gavage, daily dose 140 mg/kg/day): 0%
- Culture positive (%) ([2]; oral gavage, daily dose 500 mg/kg/day): 0%
- Clearance of infection ([2]; IP injection twice a day, after 5 days of treatment, similarly to ceftriaxone control): cleared the infection
- B. burgdorferi culture from mice ([2]; 10 and 25 mg/kg): B. burgdorferi were cultured from mice
- B. burgdorferi culture from mice ([2]; doses higher than 25 mg/kg): not at any of the higher doses
- PCR from ear, joint and heart tissue ([2]; oral gavage, doses above 50 mg/kg): negative
- IC50 [14]: >512 mg/L
- MIC ([12]; BmpD overexpressing B. burgdorferi (FIG. 7B)): 0.0625 mg/L
- Change of MIC on overexpression of bmpD in B. burgdorferi [12]: four-fold reduction
- Reduction of E. coli MIC on inducing expression of BmpD [15]: 8 fold
- IC50 [16]: >512 mg/L
- EC50 (cytotoxicity) [17]: > 512
- Minimum inhibitory concentration (MIC) [3]: 8 mg/L
- GFP level as compared to control (protein synthesis) [18]: dramatically lower level of GFP
- MIC [19]: 512 mg/L
- MIC ([5]; Bacteroides fragilis): >128 µg
- Minimum inhibitory concentration (MIC) ([5]; Bacteroides fragilis ATCC 25285, anaerobic): 32 mg/L
- MIC [20]: 16 mg/L
- MIC [21]: >128 µg
- Minimum inhibitory concentration (MIC) ([6]; Brevinema andersonii ATCC 43811, microaerophilic): 2 mg/L
- Activity against Brachyspira hyodysenteriae [22]: good activity
- IC50 [23]: >512 mg/L
- Treatment of pig dysentery [24]: showed efficacy
- Minimum inhibitory concentration (MIC) [7]: 64 mg/L
- Minimum inhibitory concentration (MIC) ([8]; Borreliella burgdorferi 297, microaerophilic): 0.25 mg/L
- Kd ([25]; E. coli ribosomes, inferred from in vitro translation arrest, read-out: Kd of binding to the ribosome): < 0.01 µM
- Arrest of in vitro translation of model ORFs ([25]; lowest concentration tested, 0.6 μM): complete arrest of translation
- Activity against S. aureus, times lower compared to B. burgdorferi ([9]; S. aureus used in the counter-screen vs B. burgdorferi): 64 times
- MIC ([9]; Staphylococcus aureus): 8 µg
- Minimum inhibitory concentration (MIC) ([9]; Staphylococcus aureus HG003): 8 mg/L
- MIC ([10]; Pseudomonas aeruginosa): >128 µg
- Minimum inhibitory concentration (MIC) ([10]; Pseudomonas aeruginosa PAO1): >128 mg/L
- MIC ([26]; Borrelia burgdorferi BbP1286): 0.12 µg
- Minimum inhibitory concentration (MIC) ([26]; Borreliella burgdorferi P1286, microaerophilic): 0.12 mg/L
- Minimum inhibitory concentration (MIC) ([11]; Clostridium perfringens KLE 2326, anaerobic, stool isolate): 8 mg/L
- B. burgdorferi culture (% positive) ([13]; 200 mg/kg): 0%
- Mean # of B. burgdorferi/10 mg of skin tissue (qPCR) ([13]; 200 mg/kg): <1 B. burgdorferi/10 mg of skin t
- Culture positive (%) ([13]; daily dose 100 mg/kg/day): 0%
- Clearance of B. burgdorferi infection by consuming baits ([13]; baits, FIG. 10): efficiently cleared
- MIC [27]: 0.03 µg
- Minimum inhibitory concentration (MIC) [27]: 0.03 mg/L
- MIC ([27]; monitoring spirochetes in co-culture with rabbit cells): 0.03 mg/L
